Measured values reported in ChEMBL document CHEMBL1201862, “PubChem BioAssay data set” (2004).
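Test compounds were applied to cells in 96-well plates for 48 hours at 5 doses. Abbreviation: GI50, concentration required for 50% inhibition of growth.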 The source made the active and inactive calls. Rule as the data show it: active = GI50 up to about 1.1 µM and inactive = higher.

Key:
Test in all cases: NCI tumour cell line growth inhibition, 48 h
NCI-H460 = system: NCI-H460
HT-29 = system: HT-29
NCI-H226 = system: NCI-H226
U-251 = system: U-251
CCRF-CEM = system: CCRF-CEM
SNB-78 = system: SNB-78
SF-539 = system: SF-539
SK-MEL-28 = system: SK-MEL-28
SF-268 = system: SF-268
HOP-92 = system: HOP-92
RXF 631 = system: RXF 631
HCT-15 = system: HCT-15
DMS-273 = system: DMS-273
LOX IMVI = system: LOX IMVI
SK-OV-3 = system: SK-OV-3
OVCAR-4 = system: OVCAR-4
SK-MEL-2 = system: SK-MEL-2
HCT-116 = system: HCT-116
SN12C = system: SN12C
KM-20L2 = system: KM-20L2
K562 = system: K562
786-0 = system: 786-0
HCC 2998 = system: HCC 2998
A498 = system: A498
DMS-114 = system: DMS-114
HOP-62 = system: HOP-62
SF-295 = system: SF-295
KM12 = system: KM12
LXFL 529 = system: LXFL 529
NCI-H23 = system: NCI-H23
OVCAR-3 = system: OVCAR-3
SNB-19 = system: SNB-19
COLO 205 = system: COLO 205
UO-31 = system: UO-31
ACHN = system: ACHN
IGROV-1 = system: IGROV-1
RXF 393 = system: RXF 393
DLD-1 = system: DLD-1
RPMI-8226 = system: RPMI-8226
SNB-75 = system: SNB-75
NCI-H522 = system: NCI-H522
HL-60 = system: HL-60
UACC-62 = system: UACC-62
M14 = system: M14
MOLT-4 = system: MOLT-4
OVCAR-5 = system: OVCAR-5
M19-MEL = system: M19-MEL
A549 = system: A549
SW-620 = system: SW-620
Malme-3M = system: Malme-3M
TK-10 = system: TK-10
SK-MEL-5 = system: SK-MEL-5
EKVX = system: EKVX
UACC-257 = system: UACC-257
OVCAR-8 = system: OVCAR-8
XF498 = system: XF498
MDA-N = system: MDA-N
Hs-578T = system: Hs-578T
MCF7 = system: MCF7
MDA-MB-435 = system: MDA-MB-435
SR = system: SR
MDA-MB-231 = system: MDA-MB-231
T47D = system: T47D
NCI/ADR-RES = system: NCI/ADR-RES
HOP-18 = system: HOP-18
DU-145 = system: DU-145
PC-3 = system: PC-3
BT-549 = system: BT-549
CAKI-1 = system: CAKI-1

Measured: GI50

N#Cc1ccc2cc3c(cc2c1)OCO3
> 100 µM: HCT-15
inactive: NCI-H460 > 100 µM | HT-29 > 100 µM | NCI-H226 39.4 µM | U-251 80.2 µM | CCRF-CEM > 100 µM | SNB-78 > 100 µM | SF-539 27 µM | SK-MEL-28 > 100 µM | SF-268 > 100 µM | HOP-92 35.6 µM | RXF 631 > 100 µM | DMS-273 95.5 µM | LOX IMVI > 100 µM | SK-OV-3 > 100 µM | OVCAR-4 > 100 µM | SK-MEL-2 > 100 µM | HCT-116 91 µM | SN12C > 100 µM | KM-20L2 > 100 µM | K562 89.5 µM | 786-0 > 100 µM | HCC 2998 > 100 µM | A498 28.4 µM | DMS-114 > 100 µM | HOP-62 > 100 µM | SF-295 > 100 µM | KM12 > 100 µM | LXFL 529 > 100 µM | NCI-H23 > 100 µM | OVCAR-3 > 100 µM | SNB-19 50.7 µM | COLO 205 > 100 µM | UO-31 21.5 µM | ACHN 59.3 µM | IGROV-1 > 100 µM | RXF 393 61.5 µM | DLD-1 > 100 µM | RPMI-8226 54.5 µM | SNB-75 26 µM | NCI-H522 > 100 µM | HL-60 77.1 µM | UACC-62 > 100 µM | M14 > 100 µM | MOLT-4 49.2 µM | OVCAR-5 76.6 µM | M19-MEL > 100 µM

O=C(Cc1cc[n+]([O-])cc1)C(=O)Nc1cc(Cl)c(Cl)cc1Cl
> 100 µM: HCT-15
inactive: NCI-H460 > 100 µM | U-251 > 100 µM | CCRF-CEM > 100 µM | A549 > 100 µM | SNB-78 > 100 µM | SF-539 > 100 µM | SK-MEL-28 > 100 µM | SF-268 > 100 µM | SW-620 > 100 µM | HOP-92 38.3 µM | Malme-3M > 100 µM | RXF 631 > 100 µM | TK-10 > 100 µM | SK-OV-3 > 100 µM | SK-MEL-5 > 100 µM | OVCAR-4 > 100 µM | SK-MEL-2 > 100 µM | EKVX > 100 µM | UACC-257 > 100 µM | HCT-116 > 100 µM | KM-20L2 > 100 µM | OVCAR-8 > 100 µM | K562 > 100 µM | 786-0 > 100 µM | HCC 2998 > 100 µM | A498 > 100 µM | DMS-114 > 100 µM | HOP-62 > 100 µM | SF-295 > 100 µM | KM12 > 100 µM | LXFL 529 > 100 µM | NCI-H23 > 100 µM | OVCAR-3 > 100 µM | SNB-19 > 100 µM | COLO 205 > 100 µM | UO-31 > 100 µM | ACHN > 100 µM | IGROV-1 > 100 µM | RXF 393 > 100 µM | DLD-1 > 100 µM | RPMI-8226 > 100 µM | SNB-75 77.1 µM | NCI-H522 > 100 µM | HL-60 > 100 µM | UACC-62 > 100 µM | M14 > 100 µM | MOLT-4 > 100 µM | OVCAR-5 > 100 µM | M19-MEL > 100 µM

CCNCC(=O)O[C@]1(CC)C(=O)OCc2c1cc1n(c2=O)Cc2cc3ccccc3nc2-1
active: NCI-H460 0.0277 µM | HT-29 0.889 µM | NCI-H226 0.115 µM | U-251 0.0614 µM | CCRF-CEM 0.0142 µM | A549 0.157 µM | XF498 0.364 µM | SF-539 0.0466 µM | SF-268 0.0767 µM | SW-620 0.434 µM | DMS-273 0.0119 µM | MCF7 0.0693 µM | LOX IMVI 0.0893 µM | SK-OV-3 0.258 µM | SK-MEL-5 0.267 µM | SR < 0.0118 µM | UACC-257 0.585 µM | HCT-116 0.342 µM | SN12C 0.0619 µM | OVCAR-8 0.27 µM | K562 0.598 µM | T47D 0.203 µM | 786-0 0.0455 µM | HCC 2998 1.04 µM | A498 0.661 µM | DMS-114 0.0857 µM | NCI/ADR-RES 0.114 µM | HOP-62 0.0275 µM | HOP-18 0.44 µM | SF-295 0.0586 µM | KM12 0.778 µM | NCI-H23 0.0849 µM | DU-145 0.0465 µM | PC-3 0.741 µM | SNB-19 0.108 µM | UO-31 0.158 µM | ACHN 0.0441 µM | RXF 393 0.264 µM | RPMI-8226 0.237 µM | SNB-75 0.284 µM | NCI-H522 0.221 µM | BT-549 1.05 µM | HL-60 0.056 µM | UACC-62 0.0468 µM | M14 0.163 µM | CAKI-1 0.0559 µM | MOLT-4 0.0195 µM | OVCAR-5 0.811 µM | M19-MEL 0.394 µM
1.85 µM: HCT-15
inactive: SNB-78 5.11 µM | MDA-N 1.36 µM | Hs-578T 25.8 µM | SK-MEL-28 3.56 µM | HOP-92 1.16 µM | Malme-3M 1.49 µM | MDA-MB-435 1.36 µM | TK-10 7.4 µM | OVCAR-4 2.25 µM | SK-MEL-2 2.77 µM | EKVX 2.44 µM | MDA-MB-231 6.71 µM | KM-20L2 1.14 µM | LXFL 529 4.73 µM | OVCAR-3 2.07 µM | COLO 205 1.69 µM | IGROV-1 2.2 µM | DLD-1 2.37 µM

COCC1N=C(c2cc(OC)c(OC)c(OC)c2-c2cc3c(cc2[C@H](C)O)OCO3)O[C@H]1c1ccccc1 (stereo partly specified)
inactive: HT-29 76.2 µM | NCI-H226 > 100 µM | U-251 65.2 µM | CCRF-CEM > 10 µM | A549 56.8 µM | SNB-78 61 µM | SF-539 69.7 µM | SK-MEL-28 59.2 µM | SW-620 > 100 µM | HOP-92 27.2 µM | RXF 631 > 100 µM | DMS-273 37.2 µM | LOX IMVI 63.2 µM | TK-10 > 100 µM | SK-OV-3 > 100 µM | SK-MEL-5 42.4 µM | OVCAR-4 33.5 µM | SK-MEL-2 36.7 µM | EKVX > 100 µM | HCT-116 44.6 µM | SN12C 46.5 µM | KM-20L2 > 100 µM | OVCAR-8 81.5 µM | K562 > 10 µM | 786-0 > 100 µM | HCC 2998 > 100 µM | HOP-18 88.9 µM | SF-295 48.2 µM | KM12 52.6 µM | LXFL 529 37.7 µM | NCI-H23 87.7 µM | OVCAR-3 47.4 µM | SNB-19 61 µM | COLO 205 30.1 µM | UO-31 58.6 µM | ACHN 40.7 µM | IGROV-1 > 100 µM | DLD-1 83.6 µM | RPMI-8226 31 µM | SNB-75 49.2 µM | HL-60 > 10 µM | UACC-62 > 100 µM | M14 72.3 µM | MOLT-4 41.6 µM | M19-MEL 37.1 µM
56.9 µM: HCT-15
